Reference: PubChem BioAssay AID192 (DTP/NCI, 2004)
Where “and” joins values, the source holds several entries; their conditions need not be identical. Equal entries are not always repeated. Inconclusive results and toxic doses are left out.

Test system: BDF1 mice, B16 melanoma ip, median survival T/C
Test: NCI In Vivo Anticancer Drug Screen. Data for tumor model B16 Melanoma (intraperitoneal) in B6D2F1 (BDF1) mice
Conditions: endpoint: median survival time, higher = longer survival
Experimental: The antitumor activity of compounds was measured in mice bearing transplantable tumors. Survival or tumor size were measured and the results are expressed as the measurement made in the treated group (T) divided by the measurement made in the vehicle treated control group (C). The tumor model used in this assay is B16 Melanoma (intraperitoneal) in B6D2F1 (BDF1) mice

[1] = dose: 25.0 mg/kg/injection, schedule: Q01DX009 (ip), vehicle: saline with Tween-80
[2] = dose: 50.0 mg/kg/injection, schedule: Q01DX009 (ip), vehicle: saline with Tween-80
[3] = dose: 75.0 mg/kg/injection, schedule: Q01DX009 (ip), vehicle: Klucel (hydroxypropylcellulose) (HPC)
[4] = dose: 150.0 mg/kg/injection, schedule: Q01DX009 (ip), vehicle: Klucel (hydroxypropylcellulose) (HPC)
[5] = dose: 300.0 mg/kg/injection, schedule: Q01DX009 (ip), vehicle: Klucel (hydroxypropylcellulose) (HPC)
[6] = dose: 100.0 mg/kg/injection, schedule: Q01DX009 (ip), vehicle: Klucel (hydroxypropylcellulose) (HPC)
[7] = dose: 200.0 mg/kg/injection, schedule: Q01DX009 (ip), vehicle: Klucel (hydroxypropylcellulose) (HPC)
[8] = dose: 400.0 mg/kg/injection, schedule: Q01DX009 (ip), vehicle: Klucel (hydroxypropylcellulose) (HPC)
[9] = dose: 100.0 mg/kg/injection, schedule: Q01DX009 (ip), vehicle: saline with Tween-80
[10] = dose: 50.0 mg/kg/injection, schedule: Q01DX009 (ip), vehicle: Klucel (hydroxypropylcellulose) (HPC)

CC(C)CC(Br)C(=O)NCC(=O)O (centres undefined)
T/C [1]: 95 % of control | T/C [2]: 95 % of control

O=C1C(N2CCCC2)=C(N2CC2)C(=O)C(N2CCCC2)=C1N1CC1
T/C (dose: 0.25 mg/kg/injection, schedule: Q01DX009 (ip), vehicle: saline): 100 % of control | T/C (dose: 0.5 mg/kg/injection, schedule: Q01DX009 (ip), vehicle: saline): 114 % of control | T/C (dose: 1.0 mg/kg/injection, schedule: Q01DX009 (ip), vehicle: saline): 111 % of control | T/C (dose: 2.0 mg/kg/injection, schedule: Q01DX009 (ip), vehicle: saline): 118 % of control

CC1CCC2C1C1C(CCC2(C)O)C1(C)C (centres undefined)
T/C [3]: 97 % of control | T/C [4]: 94 % of control | T/C [5]: 97 % of control

CCN(C(=O)COc1ccc(Cl)cc1)c1ccccc1C
T/C [6]: 96 % of control | T/C [7]: 106 % of control | T/C [8]: 96 % of control

CN(C)c1ccc(C=C2c3ccccc3-c3ccccc32)cc1
T/C [6]: 106 % of control | T/C [7]: 103 % of control | T/C [8]: 106 % of control

N#Cc1ncc(C(Cl)Cl)nc1Cl
T/C (dose: 3.13 mg/kg/injection, schedule: Q01DX009 (ip), vehicle: saline + alcohol): 96 % of control | T/C (dose: 6.25 mg/kg/injection, schedule: Q01DX009 (ip), vehicle: saline + alcohol): 91 % of control | T/C (dose: 12.5 mg/kg/injection, schedule: Q01DX009 (ip), vehicle: saline + alcohol): 93 % of control | T/C (dose: 25.0 mg/kg/injection, schedule: Q01DX009 (ip), vehicle: saline + alcohol): 89 % of control | T/C [1]: 94 % of control

COc1ccc([Se][Se]c2ccc(OC)cc2NC(C)=O)c(NC(C)=O)c1
T/C [2]: 102 % of control | T/C [9]: 92 % of control | T/C (dose: 200.0 mg/kg/injection, schedule: Q01DX009 (ip), vehicle: saline with Tween-80): 100 % of control

Clc1nnc(Cl)c(Cl)c1Cl
T/C (dose: 0.05 mg/kg/injection, schedule: Q01DX009 (ip), vehicle: saline with Tween-80): 109 % of control | T/C (dose: 0.05 mg/kg/injection, schedule: Q04DX003 (ip), vehicle: saline): 102 % of control | T/C (dose: 0.1 mg/kg/injection, schedule: Q01DX009 (ip), vehicle: saline with Tween-80): 100 % of control | T/C (dose: 0.1 mg/kg/injection, schedule: Q04DX003 (ip), vehicle: saline): 91 % of control | T/C (dose: 0.2 mg/kg/injection, schedule: Q01DX009 (ip), vehicle: saline with Tween-80): 100 % of control | T/C (dose: 0.2 mg/kg/injection, schedule: Q04DX003 (ip), vehicle: saline): 89 % of control

O=C(CCN1CC1)Nc1ccc(NC(=O)CCN2CC2)cc1
T/C (dose: 5.0 mg/kg/injection, schedule: Q04DX003 (ip), vehicle: Klucel (hydroxypropylcellulose) (HPC)): 170 % of control | T/C (dose: 10.0 mg/kg/injection, schedule: Q04DX003 (ip), vehicle: Klucel (hydroxypropylcellulose) (HPC)): 173 % of control and 184 % of control | T/C (dose: 20.0 mg/kg/injection, schedule: Q04DX003 (ip), vehicle: Klucel (hydroxypropylcellulose) (HPC)): 160 % of control and 175 % of control | T/C (dose: 40.0 mg/kg/injection, schedule: Q04DX003 (ip), vehicle: Klucel (hydroxypropylcellulose) (HPC)): 105 % of control

O=C(Nc1ccccc1F)c1cccc(C(=O)Nc2ccccc2F)c1
T/C [10]: 101 % of control | T/C [6]: 108 % of control | T/C [7]: 96 % of control

CCSCCC1(CCC(C)C)C(=O)NC(=Nc2ccccc2)NC1=O (centres undefined)
T/C [2]: 91 % of control | T/C [9]: 89 % of control | T/C (dose: 400.0 mg/kg/injection, schedule: Q01DX009 (ip), vehicle: saline with Tween-80): 96 % of control

CCCCCCCCC(=O)CCCCC
T/C [3]: 104 % of control | T/C [4]: 103 % of control | T/C [5]: 103 % of control

Nc1nc(-c2ccccc2N=NN2CCCC2)nc2ccccc12
T/C (dose: 25.0 mg/kg/injection, schedule: Q01DX009 (ip), vehicle: Klucel (hydroxypropylcellulose) (HPC)): 95 % of control | T/C [10]: 94 % of control
